Test results reported in ChEMBL document CHEMBL1151444, “Failure of current cefepime breakpoints to predict clinical outcomes of bacteremia caused by gram-negative organisms” (2007).

Tests used:
Assay type in all cases: functional
Escherichia coli = experiment: Antibacterial activity in Escherichia coli infected patient assessed as mortality after 28 days
Pseudomonas aeruginosa = experiment: Antibacterial activity in Pseudomonas aeruginosa infected patient assessed as mortality after 28 days
Proteus sp. = experiment: Antibacterial activity in Proteus sp. infected patient assessed as mortality after 28 days
Klebsiella sp. = experiment: Antibacterial activity in Klebsiella sp. infected patient assessed as mortality after 28 days
Serratia sp. = experiment: Antibacterial activity in Serratia sp. infected patient assessed as mortality after 28 days
Enterobacter sp. = experiment: Antibacterial activity in Enterobacter sp. infected patient assessed as mortality after 28 days

CO/N=C(\C(=O)N[C@@H]1C(=O)N2C(C(=O)[O-])=C(C[N+]3(C)CCCC3)CS[C@H]12)c1csc(N)n1 [CEFEPIME]
Activity (Escherichia coli): 21.2% | Activity (Pseudomonas aeruginosa): 39.1% | Activity (Proteus sp.): 25% | Activity (Klebsiella sp.): 30.4% | Activity (Serratia sp.): 23.8% | Activity (Enterobacter sp.): 21.7%
